In general, chromatographic logP refers to a lipophilicity value derived from retention on a column. Low values mean lower lipophilicity, high ones higher lipophilicity.

One compound from patent US20070179162A1, “Triazolopyrimdines” (priority 2003, published 2007) can be followed below.

Molecules are shown by their SMILES.

One data set relates to Alternaria solani. As to the kind of experiment: Alternaria test (tomato)/protective. The format is in vivo. The conditions noted are these: tomato plants, protective, applied quantity 750 g/ha, analysis 7 days after inoculation; 100% = no infection. The procedure: Alternaria Test (Tomato)/Protective Solvent: 49 parts by weight N,N-dimethyl formamide Emulsifier: 1 part by weight alkyl aryl polyglycolether To produce an effective active ingredient preparation, 1 part by weight active ingredient is mixed with the specified quantities of solvent and emulsifier and the concentrate is diluted using water to the desired concentration. To test for protective activity, young tomato plants are sprayed with the active ingredient preparation in the specified applied quantity. 1 day after the treatment, the plants are inoculated with a spore suspension of Alternaria solani and then stand 24 hours at 100% relative humidity and 20° C. The plants are then stand at 96% relative humidity and a temperature of 20° C. The analysis is performed 7 days after the inoculation. In this case, 0% means an activity which corresponds to that of the control, while an activity of 100% means that no infection is observed.

Data set [1] can be described thus: logP determination through HPLC (gradient method, acetonitrile/0.1% aqueous phosphoric acid). In kind it is physicochemical.

`CC1CCC(c2c(-c3ncncc3Cl)c(Cl)nc3ncnn23)CC1` (centres unmarked) [Example 1, 5-chloro-6-(5-chloro-4-pyrimidinyl)-7-(4-methylcyclohexyl)[1,2,4]triazolo[1,5-a]pyrimidine] registered an activity with Alternaria solani of 100%. Moreover, the chromatographic logP in data set [1] amounted to 3.27.
